Legend:
Streptococcus pneumoniae = test: Antibacterial activity against Streptococcus pneumoniae D39 after 20 hrs by CLSI-based microdilution method; format: functional; details: D39, 20 h
[1] = Cytotoxicity against human HepG2 cells assessed as reduction in cell viability after 48 hrs by Alamar Blue assay; format: cell-based
[2] = Drug level in ICR mouse liver microsomes treated with 6-Cyclobutoxy-(R)-4-[((1S,2S,4S,5Z)-5-ethylidene-1-azabicyclo-[2.2.2]octan-2-yl)hydroxymethyl]quinoline at 10 uM preincubated with NADPH for 10 mins and measured after 90 mins by LC-MS/MS analysis; format: ADME, Microsome; details: 1.5 h
[3] = Drug level in ICR mouse liver microsomes treated with 6-Cyclobutoxy-(R)-4-[((1S,2S,4S,5E)-5-ethylidene-1-azabicyclo[2.2.2]octan-2-yl)hydroxymethyl]quinoline at 10 uM preincubated with NADPH for 10 mins and measured after 90 mins by LC-MS/MS analysis; format: ADME, Microsome; details: 1.5 h

SMILES	MIC (Streptococcus pneumoniae)	CC50 at 48 h [1] [µM]	Drug uptake [2]	Drug uptake [3]
CC=C1C[N@]2CC[C@H]1C[C@@H]2[C@@H](O)c1ccnc2ccc(OC)cc12	> 395 µM	> 100		
O=c1cc([C@@H](O)[C@@H]2C[C@@H]3CC[N@@]2C/C3=C\CO)c2cc(OC3CCC3)ccc2[nH]1			Active	Active
CC=C1C[N@]2CC[C@H]1C[C@H]2[C@H](O)c1ccnc2ccc(OCc3ccccc3)cc12	40 µM	47		
COc1ccc2nccc([C@@H](O)[C@@H]3C[C@@H]4CC[N@@]3CC4=O)c2c1	> 410 µM	> 100		
CC=C1C[N@]2CC[C@H]1C[C@H]2[C@H](O)c1ccnc2ccc(OC(C)CO)cc12 (mixture of isomers)	5 µM	> 100		
COc1ccc2nccc([C@@H](O)[C@@H]3C[C@@H]4CC[N@@]3CC4=NOCC(F)(F)F)c2c1	> 313 µM	> 100		
CC=C1C[N@]2CC[C@H]1C[C@H]2[C@H](O)c1ccnc2ccc(OCCC)cc12	3 to 6 µM	51		
COc1ccc2nccc([C@@H](O)[C@@H]3C[C@@H]4CC[N@@]3C/C4=N/OCC3CC3)c2c1	42 to 84 µM	> 100		
C=C[C@H]1C[N@@]2CC[C@H]1C[C@H]2[C@H](O)c1ccnc2ccc(OC)cc12 [QUININE]		> 100		
COC(=O)CCCON=C1C[N@]2CC[C@H]1C[C@H]2[C@H](O)c1ccnc2ccc(OC)cc12	299 µM	> 100		
COc1ccc2nccc([C@@H](O)[C@@H]3C[C@@H]4CC[N@@]3C/C4=N/O)c2c1	> 391 µM	> 100		
CCCO/N=C1/C[N@]2CC[C@H]1C[C@H]2[C@H](O)c1ccnc2ccc(OC)cc12	86 µM	> 100		
CON=C1C[N@]2CC[C@H]1C[C@H]2[C@H](O)c1ccnc2ccc(OC)cc12	375 to 750 µM	> 100		
CC[C@H]1C[N@]2CC[C@H]1C[C@H]2[C@H](O)c1ccnc2ccc(OCC(F)(F)F)cc12	10 µM	72		
CC=C1C[N@]2CC[C@H]1C[C@H]2[C@H](O)c1ccnc2ccc(OCCCC)cc12	11 µM	27		
COc1ccc2nccc([C@@H](O)[C@@H]3C[C@@H]4CC[N@@]3C/C4=N/OC3CCCC3)c2c1	40 to 81 µM	> 100		
CCCCOc1ccc2nccc([C@@H](O)[C@@H]3C[C@@H]4CC[N@@]3C[C@@H]4CC)c2c1	22 µM	41		
CC=C1C[N@]2CC[C@H]1C[C@H]2[C@@H](F)c1ccnc2ccc(OC)cc12	> 392 µM	> 100		
CC[C@H]1C[N@]2CC[C@H]1C[C@H]2[C@H](O)c1ccnc2ccc(OC(C)C)cc12	11 µM	86		
CCOC(=O)CCCON=C1C[N@]2CC[C@H]1C[C@H]2[C@H](O)c1ccnc2ccc(OC)cc12	299 µM	> 100		
CC[C@H]1C[N@]2CC[C@H]1C[C@@H]2[C@H](F)c1ccnc2ccc(OC)cc12	> 390 µM	> 100		
CC=C1C[N@]2CC[C@H]1C[C@H]2[C@H](O)c1ccnc2ccc(OC(C)C)cc12	1 µM	54		
C/C=C1\C[N@]2CC[C@H]1C[C@H]2[C@H](O)c1ccnc2ccc(O[C@H]3O[C@H](C(=O)O)[C@@H](O)[C@H](O)[C@H]3O)cc12			Active	Active
COc1ccc2nccc([C@@H](O)[C@@H]3C[C@@H]4CC[N@@]3C/C4=N/OC(C)C)c2c1	43 to 86 µM	> 100		
CC[C@H]1CN2CC[C@H]1C[C@H]2[C@H](O)c1ccnc2ccc(OC)cc12 [HYDROQUININE]	98 µM	> 100		
CC=CC1C[N@]2CC[C@H]1C[C@H]2[C@H](O)c1ccnc2ccc(OC)cc12 (stereo partly drawn)	12 µM	> 100		

SMILES	MIC (Streptococcus pneumoniae)	CC50 at 48 h [1] [µM]	Drug uptake [2]	Drug uptake [3]
COc1ccc2nccc([C@@H](O)[C@@H]3C[C@@H]4CC[N@@]3C[C@@H]4[C@H](O)CO)c2c1	> 357 µM	> 100		
CC=C1C[N@]2CC[C@H]1C[C@H]2[C@H](O)c1ccnc2ccc(OCC)cc12	1 µM	> 100		
C/C=C1\C[N@]2CC[C@H]1C[C@H]2C(=O)c1ccnc2ccc(O)cc12			Active	Active
CC=C1C[N@]2CC[C@H]1C[C@H]2[C@H](O)c1ccnc2ccc(OCC(F)(F)F)cc12	5 µM	> 100		
C/C=C1\CN2CC[C@H]1C[C@H]2[C@H](O)c1ccnc2ccc(O)cc12			Active	Active
CC=C1C[N@]2CC[C@H]1C[C@H]2[C@H](O)c1ccnc2ccc(OC)cc12	12 µM	> 100		
OC/C=C1\C[N@]2CC[C@H]1C[C@H]2[C@H](O)c1ccnc2ccc(OC3CCC3)cc12			Active	Active
COc1ccc2nccc([C@@H](O)[C@@H]3C[C@@H]4CC[N@@]3CC4=NOCc3ccccc3)c2c1	77 µM	> 100		
C=CCOc1ccc2nccc([C@@H](O)[C@@H]3C[C@@H]4CC[N@@]3C[C@@H]4CC)c2c1	11 to 22 µM	78		
C=CCOc1ccc2nccc([C@@H](O)[C@@H]3C[C@@H]4CC[N@@]3CC4=CC)c2c1	4 µM	54		
C=CCON=C1C[N@]2CC[C@H]1C[C@H]2[C@H](O)c1ccnc2ccc(OC)cc12	174 µM	51		
CCCOc1ccc2nccc([C@@H](O)[C@@H]3C[C@@H]4CC[N@@]3C[C@@H]4CC)c2c1	11 µM	57		
CC[C@H]1C[N@]2CC[C@H]1C[C@H]2[C@H](O)c1ccnc2ccc(OC3CCCC3)cc12	5 µM	> 100		
CC[C@H]1C[N@]2CC[C@H]1C[C@H]2[C@H](O)c1ccnc2ccc(OCC3CC3)cc12	22 µM	87		
CCCCON=C1C[N@]2CC[C@H]1C[C@H]2[C@H](O)c1ccnc2ccc(OC)cc12	21 to 42 µM	> 100		
CC[C@H]1C[N@]2CC[C@H]1C[C@H]2[C@H](O)c1ccnc2ccc(OC3CCC3)cc12	5 µM	51		
CC[C@H]1C[N@]2CC[C@H]1C[C@H]2[C@H](O)c1ccnc2ccc(OCc3ccccc3)cc12	16 to 32 µg/mL	76		
COc1ccc2nccc([C@@H](O)[C@@H]3C[C@@H]4CC[N@@]3CC4=NOC3CCC3)c2c1	84 µM	> 100		
CC=C1C[N@]2CC[C@H]1C[C@H]2[C@H](O)c1ccnc2ccc(OC3CCCC3)cc12	5 µM	48		
CC=C1C[N@]2CC[C@H]1C[C@@H]2[C@H](F)c1ccnc2ccc(OC)cc12	392 µM	> 100		
CCON=C1C[N@]2CC[C@H]1C[C@H]2[C@H](O)c1ccnc2ccc(OC)cc12	360 µM	> 100		
CC=C1C[N@]2CC[C@H]1C[C@H]2[C@H](O)c1ccnc2ccc(OCC3CC3)cc12	5 µM	> 100		
C#CCON=C1C[N@]2CC[C@H]1C[C@H]2[C@H](O)c1ccnc2ccc(OC)cc12	175 µM	> 100		
CC[C@H]1CN2CC[C@H]1C[C@H]2[C@H](O)c1ccnc2ccc(O)cc12	204 µM	> 100		
C=C[C@H]1CN2CC[C@@H]1C[C@H](F)[C@H]2c1ccnc2ccc(OC)cc12	392 µM	> 100		
O=C(c1ccnc2ccc(OC3CCC3)cc12)[C@@H]1C[C@@H]2CC[N@@]1C/C2=C\CO			Active	Active

Source: ChEMBL document CHEMBL4400546, “A Cinchona Alkaloid Antibiotic That Appears To Target ATP Synthase in Streptococcus pneumoniae” (J Med Chem, 2019)
